Data reported in US20260344668A1, “PHENYLPYRAZOLE COMPOUND, AND PLANT DISEASE CONTROL METHOD” (priority 2022, published 2026).

Assays:
Phakopsora pachyrhizi [1] = test: Test Example 15 Control Test Against Soybean Rust Fungus (spore germination, 96 well titer plate); type: cell-based; conditions: treatment concentration 1 ppm, 23° C., several hours
Procedure: (§1) The term of “non-treated well” in Test Example 4, Test Example 5, and Test Example 6 represents a well wherein a test was carried out under the same conditions as those described in each Test Example except for dispensing DMSO instead of a diluted solution with DMSO comprising the Present compound. Also, the term of “non-treated” in Test Examples 15 to 17 represents a test which was carried out under the same conditions as those described in each Test Example except for dispensing DMSO instead of a diluted solution with DMSO comprising the Present compound. Also, the term of “non-treated leaf disk” in Test Example 7 represents a leaf disk wherein a test was carried out under the same conditions as those described in the Test Example except for dispensing DMSO instead of a diluted solution with DMSO comprising the Present compound. Also, the term of “non-treated” in Test Example 10 and Test Example 11 means that a diluted solution with water of a formulation comprising the Present compound was not sprayed.
The Present compound was diluted with DMSO to obtain a diluted solution containing 150 ppm of the compound, and 1 μL of the diluted solution was dispensed into a titer plate (96 well), and thereto was then dispensed 149 μL of an aqueous suspension (1.0×10^4/mL) of spores of Phakopsora pachyrhizi to which spores of Phakopsora pachyrhizi were suspended in advance. This plate was cultured at 23° C. for several hours, and then germinated spores of Phakopsora pachyrhizi were counted. As a result, when the treatment concentration was 1 ppm, the number of germinated spores in each well comprising any one of the Present compound 1, 11, 17, 18, 20, 23, 30, 33, 34, 35, 36, 37, 38, 39, 40, 41, 42, 43, 44, 46, 47, 48, 49, 50, 51, 52, 53, 54, 55, 56, 57, 58, 62, 63, 64, 65, 66, 67, 68, 69, 70, 71, 72, 73, 74, 75, 76, 77, 78, 79, 80, 81, 82, 83, 84, 85, 86, 87, 88, 89, 90, 91, 92, 93, 94, 95, 96, 97, 98, 99, 100, 101, or 102 as the test compound was 50% or less relative to the number of germinated spores in the non-treated well.

[2] = system: soybean rust fungus (Phakopsora pachyrhizi) having an amino acid substitution of F129L in a mitochondrial cytochrome b protein; test: Test Example 7 Control Test Against Soybean Rust (leaf disk); type: in vivo; conditions: 200 ppm, 10 μL per soybean leaf disk (cultivar: Kurosengoku), inoculated after 1 day
Procedure: as §1
A true leaf of a soybean (cultivar: Kurosengoku) was cut into a diameter of 1 cm to prepare each leaf disk. To each well of a 24 well microplate was dispensed 1 mL of an agar medium (agar concentration 1.2%), and then one of said leaf disk was placed on the agar medium in each well. To a mixture of Sorpol (registered trademark) 1200KX (0.5 μL), DMSO (4.5 μL), and xylene (5 μL) was added a DMSO solution (20 μL) comprising a test compound (10000 ppm), and the resulting mixture was mixed. The resulting mixture was diluted with ion exchange water to prepare a mixture comprising a prescribed concentration of the test compound.
The resulting mixture was sprayed into each leaf disk at a ratio of 10 μL per leaf disk. After 1 day, an aqueous suspension of spores of soybean rust fungus (Phakopsora pachyrhizi) having an amino acid substitution of F129L in a mitochondrial cytochrome b protein (1.0×10^5/mL) was inoculated by spraying on each leaf disk. After the inoculation, the microplate was placed into an artificial climate chamber (Lighting: 6 hours, Lights-out: 18 hours, Temperature: 23° C., Humidity: 60%). After 1 day, the leaf disks were air-dried until water droplets on the surfaces of the leaf disks disappeared, and the microplate was placed into the artificial climate chamber again for 12 days. Then, lesion area of soybean rust was investigated. As a result, when the prescribed concentration was 200 ppm, each lesion area of leaf disk treated with any one of the Present compound 9, 10, 11, 13, 14, 15, 16, 17, 18, 20, 32, 33, 34, 35, 36, 37, 38, 39, 40, 42, 43, 44, 47, 48, 49, 50, 51, 52, 53, 55, 56, 57, 58, 62, 63, 64, 65, 66, 67, 68, 69, 70, 71, 73, 74, 75, 76, 77, 78, 79, 80, 81, 82, 83, 84, 85, 86, 87, 88, 89, 90, 91, 92, 93, 94, 95, 96, 97, 98, 99, 100, 101, or 102 as the test compound was 30% or less relative to the lesion area of non-treated leaf disk.

Phakopsora pachyrhizi [3] = test: Test Example 11 Control Test Against Soybean Rust (pot test, spraying before inoculation); type: in vivo; conditions: 200 ppm foliage spray, soybeans (Kurosengoku), inoculated after 2 to 5 days
Procedure: as §1
A plastic pot was filled with soil, soybeans (cultivar: Kurosengoku) were seeded thereto, and cultured in a greenhouse for 10 to 14 days. The Present compound 9, 10, 11, 13, 14, 15, 17, 18, 20, 21, 22, 23, 26, 27, 33, 34, 35, 36, 37, 38, 39, 40, 41, 42, 43, 44, 46, 47, 53, 54, 55, 56, 57, 58, 66, 67, 68, 69, 70, 71, 73, 74, 75, 76, 77, 78, 79, 80, 81, 82, 83, 84, 85, 86, 87, 88, 89, 90, 91, 92, 93, 94, 95, 96, 97, 98, 99, 100, 101, or 102 formulated according to the method described in the Formulation Example 1 was mixed with water in such a way that the concentration thereof was 200 ppm, and the resulting mixture was sprayed to foliage of the above soybeans so as to adequately adhere onto the surfaces of leaves of the above soybeans. After spraying the mixture, the soybeans were air-dried. After 2 to 5 days, an aqueous suspension of spores of Phakopsora pachyrhizi was inoculated by spraying to the soybeans. After the inoculation, the soybeans were placed in a greenhouse at 23° C. in daytime and at 20° C. in nighttime under a humid condition for 1 to 2 day(s), then cultured in a greenhouse for 12 days, and then a lesion area was investigated. As a result, the lesion area in the soybeans treated with each of the above Present compound was 30% or less relative to the lesion area in the non-treated soybeans.

O=S(=O)(c1cccs1)n1ccc(-c2ccccc2)n1 [compound 87]
number of germinated spores relative to the non-treated well (Phakopsora pachyrhizi [1]): ≤ 50% | lesion area relative to the lesion area of non-treated leaf disk [2]: ≤ 30% | lesion area relative to the lesion area in the non-treated soybeans (Phakopsora pachyrhizi [3]): ≤ 30%

O=S(=O)(c1ccco1)n1ccc(-c2ccccc2)n1 [compound 85]
number of germinated spores relative to the non-treated well (Phakopsora pachyrhizi [1]): ≤ 50% | lesion area relative to the lesion area of non-treated leaf disk [2]: ≤ 30% | lesion area relative to the lesion area in the non-treated soybeans (Phakopsora pachyrhizi [3]): ≤ 30%

O=S(=O)(c1c(Cl)cccc1Cl)n1ccc(-c2cc(F)c(Br)c(F)c2)n1 [compound 15]
lesion area relative to the lesion area of non-treated leaf disk [2]: ≤ 30% | lesion area relative to the lesion area in the non-treated soybeans (Phakopsora pachyrhizi [3]): ≤ 30%

COc1cccc(S(=O)(=O)n2ccc(-c3cc(F)c(Br)c(F)c3)n2)c1 [compound 23]
number of germinated spores relative to the non-treated well (Phakopsora pachyrhizi [1]): ≤ 50% | lesion area relative to the lesion area in the non-treated soybeans (Phakopsora pachyrhizi [3]): ≤ 30%

O=S(=O)(c1ccco1)n1ccc(-c2cc(F)cc(F)c2)n1 [compound 73]
number of germinated spores relative to the non-treated well (Phakopsora pachyrhizi [1]): ≤ 50% | lesion area relative to the lesion area of non-treated leaf disk [2]: ≤ 30% | lesion area relative to the lesion area in the non-treated soybeans (Phakopsora pachyrhizi [3]): ≤ 30%

COc1ccc(S(=O)(=O)n2ccc(-c3cc(F)c(Br)c(F)c3)n2)cc1 [compound 22]
lesion area relative to the lesion area in the non-treated soybeans (Phakopsora pachyrhizi [3]): ≤ 30%

O=S(=O)(c1cccs1)n1ccc(-c2ccc3nonc3c2)n1 [compound 64]
number of germinated spores relative to the non-treated well (Phakopsora pachyrhizi [1]): ≤ 50% | lesion area relative to the lesion area of non-treated leaf disk [2]: ≤ 30%

O=S(=O)(c1ccco1)n1ccc(-c2cccc(F)c2)n1 [compound 94]
number of germinated spores relative to the non-treated well (Phakopsora pachyrhizi [1]): ≤ 50% | lesion area relative to the lesion area of non-treated leaf disk [2]: ≤ 30% | lesion area relative to the lesion area in the non-treated soybeans (Phakopsora pachyrhizi [3]): ≤ 30%

Cc1ccc(S(=O)(=O)n2ccc(-c3cc(F)c(Br)c(F)c3)n2)o1 [compound 72]
number of germinated spores relative to the non-treated well (Phakopsora pachyrhizi [1]): ≤ 50%

CN(C)c1ccc(-c2ccn(S(=O)(=O)c3cccs3)n2)cc1 [compound 46]
number of germinated spores relative to the non-treated well (Phakopsora pachyrhizi [1]): ≤ 50% | lesion area relative to the lesion area in the non-treated soybeans (Phakopsora pachyrhizi [3]): ≤ 30%

O=S(=O)(c1cccnc1)n1ccc(-c2ccc(F)cc2)n1 [compound 57]
number of germinated spores relative to the non-treated well (Phakopsora pachyrhizi [1]): ≤ 50% | lesion area relative to the lesion area of non-treated leaf disk [2]: ≤ 30% | lesion area relative to the lesion area in the non-treated soybeans (Phakopsora pachyrhizi [3]): ≤ 30%

O=S(=O)(c1cc(Cl)cc(Cl)c1)n1ccc(-c2cc(F)c(Br)c(F)c2)n1 [compound 16]
lesion area relative to the lesion area of non-treated leaf disk [2]: ≤ 30%

O=S(=O)(c1ccccc1F)n1ccc(-c2cc(F)c(Br)c(F)c2)n1 [compound 13]
lesion area relative to the lesion area of non-treated leaf disk [2]: ≤ 30% | lesion area relative to the lesion area in the non-treated soybeans (Phakopsora pachyrhizi [3]): ≤ 30%

O=S(=O)(c1cccs1)n1ccc(-c2ccc3c(c2)OC(F)(F)O3)n1 [compound 63]
number of germinated spores relative to the non-treated well (Phakopsora pachyrhizi [1]): ≤ 50% | lesion area relative to the lesion area of non-treated leaf disk [2]: ≤ 30%

N#Cc1ccc(S(=O)(=O)n2ccc(-c3cc(F)c(Br)c(F)c3)n2)cc1 [compound 27]
lesion area relative to the lesion area in the non-treated soybeans (Phakopsora pachyrhizi [3]): ≤ 30%

Cc1ccc(S(=O)(=O)n2ccc(-c3ccc(Cl)cc3)n2)cc1 [compound 1]
number of germinated spores relative to the non-treated well (Phakopsora pachyrhizi [1]): ≤ 50%

Cc1ccc(S(=O)(=O)n2ccc(-c3cc(F)c(Br)c(F)c3)n2)cc1 [compound 21]
lesion area relative to the lesion area in the non-treated soybeans (Phakopsora pachyrhizi [3]): ≤ 30%

N#Cc1cccc(S(=O)(=O)n2ccc(-c3cc(F)c(Br)c(F)c3)n2)c1 [compound 26]
lesion area relative to the lesion area in the non-treated soybeans (Phakopsora pachyrhizi [3]): ≤ 30%

O=S(=O)(c1cc2ccccc2o1)n1ccc(-c2cc(F)c(Br)c(F)c2)n1 [compound 30]
number of germinated spores relative to the non-treated well (Phakopsora pachyrhizi [1]): ≤ 50%

O=S(=O)(c1cccs1)n1ccc(-c2ccc3ncsc3c2)n1 [compound 65]
number of germinated spores relative to the non-treated well (Phakopsora pachyrhizi [1]): ≤ 50% | lesion area relative to the lesion area of non-treated leaf disk [2]: ≤ 30%

O=S(=O)(c1ccc(F)cc1)n1ccc(-c2cc(F)c(Br)c(F)c2)n1 [compound 14]
lesion area relative to the lesion area of non-treated leaf disk [2]: ≤ 30% | lesion area relative to the lesion area in the non-treated soybeans (Phakopsora pachyrhizi [3]): ≤ 30%

O=S(=O)(c1cccnc1Cl)n1ccc(-c2cc(F)c(Br)c(F)c2)n1 [compound 54]
number of germinated spores relative to the non-treated well (Phakopsora pachyrhizi [1]): ≤ 50% | lesion area relative to the lesion area in the non-treated soybeans (Phakopsora pachyrhizi [3]): ≤ 30%
